Blank lines part the entries; values can stand above or below the compound they belong to.
What was measured:
[1] = system: recombinant active caspase-6 (R-Csp-6); assay: CIF activity: protein extracts of treated neurons added to recombinant active caspase-6 in vitro (Ac-VEID-AFC); format: cell-based, human
Description: (§1) Primary cultures of neurons were established from 12-14 week old foetal brains, according to ethical regulations of the Medical Research Council of Canada and approved by McGill University. Institutional Review Board. Briefly, cortical and subcortical brain tissue is minced, dissociated in 0.25% trypsin for 15 minutes at 37° C. Trypsin is inactivated with 10% serum and 0.1 mg/ml deoxyribonuclease I added before triturating to completely dissociate the cells. The mixture is successively passed through 130 μm and 70 μm filters, and cells plated at 3×10^6/ml on poly-L-lysine coated tissue culture dishes or ACLAR™ (33C; 5 mm; Allied Chemical Corp.) coverslips in phenol-free minimal essential media in Earle's balanced salt solution containing 0.225% sodium bicarbonate, 1 mM sodium pyruvate, 2 mM L-glutamine, 0.1% dextrose, 1×antibiotic Pen-Strep (all products from Gibco-BRL) and 5% decomplemented fetal bovine serum (Hyclone).
(§2) All were obtained from Sigma and dissolved as stock solutions in 100% ethanol. Dilutions of 1/1000 was made in culture media immediately before use. The media was changed with fresh solution every 48 hours. Controls received an equivalent amount of ethanol.
(§3) Cycloheximide (Sigma) was made at 1 mg/ml in distilled-water and diluted at 5 and 20 μg/ml in culture media before treatment. To assess the efficiency of cycloheximide as an inhibitor of translation at these concentrations, neurons were labeled with 100 μCi/ml of ^35S-methionine (Easy Tag NEN-DUPONT) for 6 hours in the absence or presence of cycloheximide. Proteins were extracted in NP-40 lysis buffer, immunoprecipitated and separated by 10% polyacrylamide gel electrophoresis. To test the effect of cycloheximide on the neuroprotective effect of 17-β-estradiol, neurons were microinjected with R-Csp-6 and incubated with 10 nM 17-β-estradiol in the absence or presence of cycloheximide for 48 hours. To test the effect of cycloheximide on 17-β-estradiol induction of CIF, neurons were incubated with 10 nM 17-β-estradiol in the absence or presence of cycloheximide for 6 hours.
After treatment, neuron proteins were extracted in caspase lysis buffer (50 mM Hepes pH 7.4, 0.1% CHAPS, 1 mM DTT, 0.1 mM EDTA) for 10 minutes on ice followed by microcentrifugation to remove insoluble material. Protein concentration was determined by bicinchoninic acid (BCA) assay (Pierce). Proteins (10 μg/100 μl assay) were added to 10 ng recombinant active caspase (Pharmingen or BioMol) in caspase assay buffer (20 mM Pipes, 30 mM NaCl, 10 mM DTT, 1 mM EDTA, 0.1% CHAPS, 10% sucrose pH 7.2) and 68.5 μM Ac-VEID-AFC for caspase-6, Ac-DEVD-AFC for caspase-3 and caspase-7, and Ac-IETD-AMC for caspase-8 (BioMol). The caspase-6 activity was measured at 37° C. every 2 minutes for 1 hour to determine the linear range of activity. Based on an AFC or AMC standard curve, the amount of released AFC or AMC was measured and the specific activity of the caspase determined as nmoles released AFC or AMC/pg protein/minute.

[2] = system: Endogenous Csp-6 in human breast cancer cell line, MCF7; assay: Endogenous Csp-6 specific activity in treated MCF7 extract; format: cell-based; conditions: MCF7 extract treated 48 hours; for Endogenous Csp-6 Specific Activity: control 6.34 (0.02); for Csp-6 activity remaining (% of control): control 100%
R-Csp-6 = R-Csp-6 specific activity in presence of treated MCF7 extract; format: cell-based, human; conditions: MCF7 extract treated 48 hours; for R-Csp-6 Specific Activity: control 6.15 (0.7); for R-Csp-6 activity remaining (% of control): control 100%
Description: After treatment, neuron proteins were extracted in caspase lysis buffer (50 mM Hepes pH 7.4, 0.1% CHAPS, 1 mM DTT, 0.1 mM EDTA) for 10 minutes on ice followed by microcentrifugation to remove insoluble material. Protein concentration was determined by bicinchoninic acid (BCA) assay (Pierce). […] Based on an AFC or AMC standard curve, the amount of released AFC or AMC was measured and the specific activity of the caspase determined as nmoles released AFC or AMC/pg protein/minute.

[3] = system: R-Csp-6-mediated apoptosis in primary cultures of human neurons; assay: TUNEL cell death of primary human neurons microinjected with recombinant active caspase-6; format: cell-based; conditions: for effect on 17-β-estradiol neuroprotective effect against caspase-6: 10 nM added to 17-β-estradiol
Description: as §1
The cells attach rapidly and establish intricate neuritic networks within 3 days. Fluorodeoxyuridine (FdU) is added at 1 mM to prevent proliferation of dividing cells. Typically, the culture is composed of 90-95% neurons and 5-10% astrocytes that survive in culture for 4-6 weeks. Experiments on neurons and astrocytes were conducted at 10 days of culture.
Glass micropipettes of 1.0 mm OD and 0.5 mm ID thin-walled glass capillaries with microfilaments (Borosilicate with filament MTW100F-4, World Precise Instrument Co.) were pulled with a Flaming/Brown micropipette puller (P-87) with a tip diameter of […]. Recombinant active caspase-6 or caspase-3 (R-Csp-6 and R-Csp-3 from Pharmingen) were prepared in caspase active buffer containing 20 mM piperazine-N,N′-βis-(2-ethanesulfonic acid) (PIPES), 100 mM NaCl, 10 mM dithiothreitol (DTT), 1 mM EDTA, 0.1% 3-[(3-cholamidopropyl)-dimethylammonio]-2-hydroxy-1-propanesulfonic acid (CHAPS), 10% sucrose, pH 7.2. R-Csp-6 was co-injected with Dextran Texas Red (DTR; at 100 μg/ml) (Cedarlane Laboratories Ltd.) as a fluorescent marker to recognize injected neurons. […] Microinjections were done with the Eppendorf Microinjector 5246 and MIS-5000 Burleigh micromanipulator; injection pressure of 100 hPa, compensation pressure of 50 hPa, and injection time of 0.1 s. The injected volume was 1 nl/shot.
Neurons were fixed in fresh 4% paraformaldehyde/4% sucrose in PBS and permeabilized with 0.1% Triton X-100 in 0.1% sodium citrate. Cell death was detected by TUNEL (TdT-mediated dUTP Nick End Labeling) using the Cell Death Kit I (Roche Molecular Biochemicals) as described by the manufacturer. The percentage of neuronal cell death was determined by the ratio of the number of DTR-TUNEL-double-positive neurons over the total number of DTR-positive neurons.
as §2
as §3, with “hours.” for “hours. To test the effect of cycloheximide on 17-β-estradiol induction of CIF, neurons were incubated with 10 nM 17-β-estradiol in the absence or presence of cycloheximide for 6 hours.”

[4] = system: caspase-3-mediated astrocytic cell death; assay: TUNEL cell death of human astrocytes microinjected with caspase-3; format: cell-based; conditions: 10 nM
[5] = system: endogenous neuronal caspase-6; assay: Endogenous caspase-6 activity in treated neurons; format: cell-based, human; conditions: neurons treated for 48 hours
Description: as §1, with “(Hyclone). […] All were obtained from Sigma and dissolved as stock solutions in 100% ethanol. Dilutions of 1/1000 was made in culture media immediately before use. […] Protein concentration was determined by bicinchoninic acid (BCA) assay (Pierce). […] Based on an AFC or AMC standard curve, the amount of released AFC or AMC was measured and the specific activity of the caspase determined as nmoles released AFC or AMC/pg protein/minute.” for “(Hyclone).”

[6] = system: Human astrocytes extracts, CIF activity; assay: CIF activity in extracts of treated human astrocytes; format: cell-based; conditions: 10 nM, 6 hours
[7] = system: protein translation in neurons; assay: 35S-methionine labelling of neurons to assess inhibition of translation; format: cell-based, human; conditions: 5-20 μg/ml
Description: as §3

[8] = 10 μM with 10 nM 17-β-estradiol

SMILES: C[C@]12CC[C@@H]3c4ccc(O)cc4CC[C@H]3[C@@H]1CC[C@H]2O [17-α-estradiol]
- inhibition of active caspase-6 by extracts from treated neurons ([1]; 1, 10, or 100 nM, neurons treated 6 hours): neither 1, 10, or 100 nM 17-α-estradiol significantly inhibit active caspase-6
- Endogenous Csp-6 Specific Activity ([2]; 10 nM): 7.13 (0.06) pmoles/μg protein/min.
- Csp-6 activity remaining (% of control) ([2]; 10 nM): 112%
- R-Csp-6 Specific Activity (R-Csp-6; 10 nM): 7.19 (0.01) nmoles/μg protein/min.
- R-Csp-6 activity remaining (% of control) (R-Csp-6; 10 nM): 117%
- protection against R-Csp-6 ([3]; 10 nM, 48 hours, 5 pg R-Csp-6/cell): do not protect significantly

SMILES: C[C@]12CC[C@@H]3c4ccc(O)cc4CC[C@H]3[C@@H]1CC[C@@H]2O [17-β-estradiol]
- inhibition of recombinant active caspase-6 in vitro by neuronal protein extracts from treated neurons [1]: inhibit recombinant active caspase-6 in vitro
- inhibition of the activity of R-Csp-6 by extracts from treated neurons ([1]; neurons treated 6 hours, 1-100 nM, 10 μg protein): 40-60%
- time of exposure at which CIF activity is maximal ([1]; time response curve): 1 h
- time of exposure to neurons until CIF activity is induced ([1]; time response curve): ≤ 10 min
- Endogenous Csp-6 Specific Activity ([2]; 1 nM): 4.02 (0.02) pmoles/μg protein/min.
- Csp-6 activity remaining (% of control) ([2]; 1 nM): 63%
- Endogenous Csp-6 Specific Activity ([2]; 10 nM): 4.84 (0.03) pmoles/μg protein/min.
- Csp-6 activity remaining (% of control) ([2]; 10 nM): 76%
- Endogenous Csp-6 Specific Activity ([2]; 100 nM): 5.06 (0.01) pmoles/μg protein/min.
- Csp-6 activity remaining (% of control) ([2]; 100 nM): 80%
- prevention of caspase-3 mediated astrocytic cell death [4]: could not prevent
- R-Csp-6 Specific Activity (R-Csp-6; 1 nM): 3.82 (0.04) nmoles/μg protein/min.
- R-Csp-6 activity remaining (% of control) (R-Csp-6; 1 nM): 62%
- R-Csp-6 Specific Activity (R-Csp-6; 10 nM): 3.25 (0.03) nmoles/μg protein/min.
- R-Csp-6 activity remaining (% of control) (R-Csp-6; 10 nM): 53%
- R-Csp-6 Specific Activity (R-Csp-6; 100 nM): 4.30 (0.1) nmoles/μg protein/min.
- R-Csp-6 activity remaining (% of control) (R-Csp-6; 100 nM): 70%
- level of apoptosis of microinjected neurons (TUNEL) ([3]; 10 nM, 48 hours, 5 pg R-Csp-6/cell, R-Csp-6 alone 50%): 20%
- protection against caspase-6 ([3]; 10 nM, time study, until 8 days): 50%
- protection against caspase-6 mediated apoptosis ([3]; 0.01 or 0.1 nM): not 0.01 or 0.1 nM
- protection against caspase-6 mediated apoptosis ([3]; 1 to 100 nM): significant protection
- exposure time at which neuronal apoptosis is decreased to maximal levels ([3]; hormone washed away, incubated until 48 hours): 10 min
- endogenous caspase-6 activity in treated neurons [5]: inhibits endogenous caspase-6 activity
- CIF activation in astrocytes [6]: CIF is not activated in astrocytes

- effect on 17-β-estradiol induction of CIF ([1]; 10 nM added to 17-β-estradiol): inhibits 17-β-estradiol induction of CIF
- induction of CIF in neurons ([1]; 10 nM, alone): Neither DES nor EE induce CIF
SMILES: CC/C(=C(/CC)c1ccc(O)cc1)c1ccc(O)cc1 [DES, diethylstilbesterol]
- effect on 17-β-estradiol neuroprotective effect against caspase-6 ([3]; 48 hours): inhibits
- induction of neuroprotection in neurons ([3]; 10 nM, alone, 48 hours): nor induce neuroprotection

SMILES: C[C@@H]1C[C@@H]([C@H](O)CC2CC(=O)NC(=O)C2)C(=O)[C@@H](C)C1 [cycloheximide]
- effect on 17-β-estradiol induction of CIF ([1]; 5-20 μg/ml with 10 nM 17-β-estradiol, 6 hours): no effect
- protein translation in neurons [7]: greatly inhibit protein translation
- effect on 17-β-estradiol-mediated neuroprotection ([3]; 5-20 μg/ml with 10 nM 17-β-estradiol, 48 hours): no effect

- effect on 17-β-estradiol induction of CIF ([1]; 10 nM added to 17-β-estradiol): inhibits 17-β-estradiol effect
- block of 17-β-estradiol induced CIF activation [1, 8]: efficiently blocked
SMILES: CC/C(=C(\c1ccccc1)c1ccc(OCCN(C)C)cc1)c1ccccc1 [tamoxifen]
- effect on 17-β-estradiol neuroprotective effect against caspase-6 ([3]; 48 hours): inhibits 17-β-estradiol effect
- block of neuroprotective function of 17-β-estradiol against caspase-6 [3, 8]: efficiently blocked
